Reference: patent publication US20060089410A1, “Combination of chemotherapeutic drugs for increasing antitumor activity” (Titan Pharmaceuticals, Inc., priority 2002, published 2006)

Tests used:
[1] = system: c-Myc oncogene; experiment: c-Myc oncogene expression by RT-PCR, Calu-6 cells; type: cell-based; details: for c-Myc oncogene expression: 96 hour exposure, n = 2
Protocol: (§1) T24 Bladder transitional carcinoma cells, Calu-6 anaplastic lung carcinoma cells, and SK-MES-1 squamous lung cell carcinoma cell cultures were purchased from the American Type Culture Collection (Manassas, Va.). All cell lines were cultured in RPMI-1640 with 10% fetal calf serum. For culture in microtiter dishes, cells were plated at a density of 10^4 cells/well and incubated at 37° C., 5% CO2 overnight.
(§2) After overnight incubation, drugs were added to wells in quadruplicate and incubated for 6 to 96 hours in the presence or absence of the oxyalkylene containing compound. […] the media was removed, fresh media were added with cytotoxic drug, and the cultures were incubated for another 6 hours.
(§3) Tumor cell culture mRNA was isolated by standard methods, and RT-PCR was conducted to determine levels of c-Myc oncogene expression. The c-Myc primer pair used for RT-PCR cycling was:
(§4) The c-Myc primer pair was cycled by the following program: 95° C. for 3 min., then 30 cycles of (95° C. for 1 min., then 55° C. for 1 min., then 72° C. for 1 min.) followed by holding temperature at 72° C. for 7 min. before ramping temperature to 4° C. Samples were analyzed quantitatively by 1% agarose gel electrophoresis and gel densitometry.

[2] = system: c-Myc oncogene; experiment: c-Myc oncogene expression by RT-PCR, T24 cells; type: cell-based, human; details: for c-Myc oncogene expression: 96 hour exposure
Protocol: as §1, §2, §3, §4

[3] = system: c-Myc oncogene; experiment: c-Myc oncogene expression, SK-MES-1 cells; type: cell-based; details: SK-MES-1, 96 hours in culture
Protocol: as §1, §2, §3, §4

[4] = system: SK-MES-1 squamous lung cell carcinoma cell; experiment: Crystal violet microtiter assay, Pivanex then cytotoxic drug, SK-MES-1; type: cell-based; details: for SK-MES-1 cancer cell viability (A^490 Absorbance): paclitaxel 0 μM
Protocol: as §1, §2
The wells were then washed and medium without drug was added to each well. Microtiter plates were subsequently incubated for an additional 3 days before cell density was determined by a Crystal Violet Assay. Some cultures were alternatively fixed in methanol and stained with hematoxylin and eosin (H&E) stain for 5 minutes prior to microphotography.
PIVANEX (pivaloyloxymethyl butyrate) was obtained from Titan Pharmaceuticals Inc. (South San Francisco, Calif.) and was admixed with 0.05% Intralipid™ (Fresenius Kabi, Clayton, N.C.) prior to addition to culture media. The cytotoxic drugs gemcitabine (Gemzar; Eli Lilly and Co., Indianapolis, Ind.), cisplatin (Platinol, Bristol-Myers Squibb Co., Princeton, N.J.), paclitaxel (Taxol; Bristol-Myers Squibb Co., Princeton, N.J.), and docetaxel (Taxotere, Aventis Pharmaceuticals Products, Inc., Bridgewater, N.J.) were studied with PIVANEX.
Cells in microtiter wells were rinsed with PBS and fixed in two volumes of 100% cold methanol for 5 minutes. One volume of 0.5% crystal violet in 20% methanol was added and the attached cells stained for 10 minutes. The cells were then washed and crystal violet was eluted with 0.1 N sodium citrate buffer and read on an ELISA plate reader at 490 nm.

[5] = system: H522 NSCLC cell line; experiment: MTS growth inhibition assay, sequencing of Pivanex and docetaxel, H522; type: cell-based, human; details: after 24 hour exposure
Protocol: Human Non-Small Cell Lung Carcinoma Cell Lines, H522 and NCI-H23, were evaluated for growth inhibitory activity of Pivanex, alone and in combination with the standard chemotherapeutic agent, docetaxel. Cells were treated for three days with Pivanex followed by 24 hours of exposure to docetaxel or the cells were treated for 24 hours with docetaxel followed by three days of exposure to Pivanex. The cell growth inhibition was judged at the end of the 4-day experiments by a standard staining technique using MTS tetrazolium vital stain. […]
Exponentially growing cells were harvested with trypsin (0.05%)/EDTA (0.02%) and re-suspended in fresh medium containing 10% FBS. […] Absorbance was documented on a Dynex HD microplate reader at a wavelength of 490 nm. IC50 values were determined by using the Prism® GraphPad software from 3 different tests, each of which involved 4 replicates for each dose determination. The data are presented as percent growth inhibition, where 0% represents the mean value in wells to which only vehicle (0.1% DMSO) was added and was calculated as follows: % Growth Inhibition=(1−(ODtest/ODvehicle))×100 where ODtest is the optical density of the tested sample, OD vehicle is the optical density of the vehicle in which each respected drug is dissolved. […]

[6] = system: A549 lung cancer cells; experiment: Pretreatment followed by various chemotherapeutic agents, A549; type: cell-based, human
Protocol: Human T24 bladder and A549 lung cancer cells were exposed to increasing concentrations of pivaloyloxymethyl butyrate for 6 or 72 hours followed by exposure to various chemotherapeutic agents. […] At higher dosages the increase in cytotoxicity following the sequential regimen would show after a shorter induction period with pivaloyloxymethyl butyrate as discussed above.

[7] = Biological evaluations (myeloablation, myelosuppression)
From the text: Pivaloyloxymethyl butyrate functions as a differentiating agent with activity against multiple tumor cell types in culture.

## CCCC(=O)OCOC(=O)C(C)(C)C [Pivanex, pivaloyloxymethyl butyrate]
[1]; Calu-6, 96 hours in culture
  concentrations (as low as) that decreased the expression of c-Myc oncogene: 10 to 50 µM
[1]; Pivanex 10 μM
  c-Myc oncogene expression: 893 PCR units
[1]; Pivanex 25 μM
  c-Myc oncogene expression: 743 PCR units
[1]; Pivanex 50 μM
  c-Myc oncogene expression: 711 PCR units
[1]; Pivanex 100 μM
  c-Myc oncogene expression: 647 PCR units
[1]; Pivanex 200 μM
  c-Myc oncogene expression: 460 PCR units
[2]; Pivanex 10 μM
  c-Myc oncogene expression: 760 PCR units
[2]; Pivanex 25 μM
  c-Myc oncogene expression: 972 PCR units
[2]; Pivanex 50 μM
  c-Myc oncogene expression: 966 PCR units
[2]; Pivanex 100 μM
  c-Myc oncogene expression: 640 PCR units
[2]; Pivanex 200 μM
  c-Myc oncogene expression: 560 PCR units
[2]; T-24, 96 hours in culture
  concentrations (as low as) that decreased the expression of c-Myc oncogene: 10 to 50 µM
[3]
  concentrations (as low as) that decreased the expression of c-Myc oncogene: 10 to 50 µM
[4]; Pivanex 10 μM
  SK-MES-1 cancer cell viability (A^490 Absorbance): 0.743
[4]; Pivanex 25 μM alone
  SK-MES-1 non-small cancer cell viability (A^490 Absorbance): 1.852
[4]; Pivanex 50 μM
  SK-MES-1 cancer cell viability (A^490 Absorbance): 0.769
[4]; Pivanex 100 μM alone
  SK-MES-1 non-small cancer cell viability (A^490 Absorbance): 1.908
[4]; Pivanex 200 μM alone
  SK-MES-1 non-small cancer cell viability (A^490 Absorbance): 1.952
[5]
  cell growth with agent alone: steep increase in H522 cell growth
[6]; A549, 6-hour pretreatment, lower doses
  enhancement of cytotoxicity of chemotherapeutic agents: did not enhance cytotoxicity
[6]; A549, 72-hour pretreatment
  enhancement of cytotoxicity of chemotherapeutic agents: did enhance drug-induced cytotoxicity
[7]
  myeloablation / myelosuppression: non-myeloablative and non-myelosuppressive
